Like-named read-outs stand apart in the source and are kept apart here.
Assays:
[1] = tested on: DSS-induced colitis in mice; format: in vivo; details: for Mean Weight (±SEM) DAY 0: Day 0 (baseline); for Mean Colon Length Cm ± SEM: necropsy Day 7; for deaths: 10 mice/group
Excerpt: The purpose of this study was to identify, characterize and document the preventative actions of compound 75 above, namely (+)-6-[amino(4-chlorophenyl) (1-methyl-1H-imidazol-5-yl)methyl]-4-(3-chlorophenyl)-1-methyl-2(1H)-quinolinone, a compound of formulae (I), in an experimental model of inflammatory bowel disease in mice.
A group of female Swiss-Webster mice was received from Ace Animals, Inc., Boyertown, Pa. The animals were grouped housed (5 mice/cage) in plastic cages with water absorbent bedding. […] The animals were fed Purina Rodent Chow #5012 and filtered tap water was supplied ad libitum by automatic watering system (during acclimation).
Following an acclimation period of 9 days, 40 healthy mice were selected for this study. The test animals were distributed (10 mice/group) into each one of the 4 test groups described below. There were no statistical significant differences between the mean group body weights.
Individual doses were calculated based on daily body weights. Prior to administration, Compound 75 was mixed with the vehicle (Beta cyclodextrin (40%) in 0.1 N HCL). This mixture was further diluted with 0.1 N HCL. The resulting mixture was then used to prepare the dilutions for groups 3 and 4. A 20% solution of Beta cyclodextrin in 0.1 N HCL was used for Groups 1 and 2 and constituted the vehicle control. Groups 2 through 4 were given a 5% w/w solution of dextran sulfate sodium (DSS) in distilled water substituted for their normal water supply (approximately 10 ml/mouse/day) from Days 0 through 6. Each group of animals received the appropriate amount of the test substance, as described above, by intubation using a stainless steel ball-tipped gavage needle attached to an appropriate syringe.
(§1) All mice were weighed daily and observed for signs of gross toxicity and behavioural changes, consistency of stool and presence of gross blood during the study. On Day 7, all animals were euthanized by CO2 inhalation and necropsied. Following euthanasia, a stool sample was obtained from the colon of each animal and tested for occult blood (Quik-Cult, Laboratory Diagnostics Co., Morganville, N.J.). The colons were then removed and the length from the colo-cecal junction to the end of the distal rectum was measured. A segment of colon was collected from each animal and preserved in 10% formalin.
(§2) For each group, the disease activity index (DAI) was determined by evaluating changes in weight, Hemoccult positivity or gross bleeding and stool consistency using the following system.
(§3) Data was analyzed using analysis of variance (single factor). Statistically methods included the Mann-Whitney test, ANOVA and Turkey-Kramer Multiple Comparisons test.
(§4) Statistical significance between test and control groups was established at a probability of p<0.05.

[2] = tested on: DSS-induced colitis in mice; test: Prevention of DSS-induced colitis in mice, repeat study with lower PO doses in 0.1 N HCl; format: in vivo; details: for weight DAY 0: Day 0 (baseline); for % Inh. Colonic Shortening / % of Normal Length Shortening / DAI mean ± SEM / DAINWT mean ± SEM / Mean Colon Length Cm ± SEM: 5% DSS days 0-7
Excerpt: as §1, §2, §3, §4
In view of the above results the experiment was repeated with lower doses of compound 75. The above procedure was followed with the following groups
Individual doses were calculated based on daily body weights. Prior to administration, 50 mg of Compound 75 was diluted with 10 milliliters of 0.1N HCl (50 mg/kg for Group 5). The resulting solution was then further diluted twice, with 5 ml increments and used for the 25 (Group 4) and 12.5 (Group 3) mg/kg dose levels. The 0.1 N HCl was used for Groups 1 and 2 and constituted the vehicle control. Groups 2 through 5 were given a 5% w/w solution of dextran sulfate sodium (DSS) in distilled water substituted for their normal water supply (approximately 10 ml:mouse/day) from Days 0 through 7. Each group of animals received the appropriate amount of the test substance, as described above, by intubation using a stainless steel ball-tipped gavage needle attached to an appropriate syringe.

[3] = 25 mg/kg PO bid days 0-6, 5% DSS
[4] = 50 mg/kg PO bid days 0-6, 5% DSS

Cn1cncc1C(N)(c1ccc(Cl)cc1)c1ccc2c(c1)c(-c1cccc(Cl)c1)cc(=O)n2C (single isomer, unassigned; (+)) [Compound 75, (+)-6-[amino(4-chlorophenyl)(1-methyl-1H-imidazol-5-yl)methyl]-4-(3-chlorophenyl)-1-methyl-2(1H)-quinolinone]
Mean Weight (±SEM) DAY 0 ([1]; 25 mg/kg PO bid + DSS): 25.1 ± 0.5 grams
% weight change (±SEM) DAY 5 ([1]; 25 mg/kg PO bid + DSS): −8.3 ± 1.5%
Mean Weight (±SEM) DAY 5 ([1]; 25 mg/kg PO bid + DSS): 23.0 ± 0.5 grams
% weight change (±SEM) DAY 6 ([1]; 25 mg/kg PO bid + DSS): −8.7 ± 2.7%
Mean Weight (±SEM) DAY 6 ([1]; 25 mg/kg PO bid + DSS): 22.9 ± 0.7 grams
% weight change (±SEM) DAY 7 ([1]; 25 mg/kg PO bid + DSS): −9.6 ± 3.5%
Mean Weight (±SEM) DAY 7 ([1]; 25 mg/kg PO bid + DSS): 22.7 ± 0.9 grams
% of Normal Length Shortening [1, 3]: 82.0%
Blood in Feces (%) [1, 3]: 0%
DAI mean ± SEM [1, 3]: 1.70 ± 0.26
DAINWT Mean ± SEM (DAI without body weight parameter) [1, 3]: 1.50 ± 0.22
Mean Colon Length Cm ± SEM [1, 3]: 9.7 ± 0.3 Cm
deaths ([1]; 25 mg/kg dose): 1
Mean Weight (±SEM) DAY 0 ([1]; 50 mg/kg PO bid + DSS): 25.6 ± 0.5 grams
% weight change (±SEM) DAY 5 ([1]; 50 mg/kg PO bid + DSS): −9.5 ± 1.3%
Mean Weight (±SEM) DAY 5 ([1]; 50 mg/kg PO bid + DSS): 23.1 ± 0.5 grams
% weight change (±SEM) DAY 6 ([1]; 50 mg/kg PO bid + DSS): −8.8 ± 2.2%
Mean Weight (±SEM) DAY 6 ([1]; 50 mg/kg PO bid + DSS): 23.3 ± 0.8 grams
% weight change (±SEM) DAY 7 ([1]; 50 mg/kg PO bid + DSS): −9.2 ± 1.9%
Mean Weight (±SEM) DAY 7 ([1]; 50 mg/kg PO bid + DSS): 23.2 ± 0.7 grams
% of Normal Length Shortening [1, 4]: 77.9%
Blood in Feces (%) [1, 4]: 22%
DAI mean ± SEM [1, 4]: 2.11 ± 0.25
DAINWT Mean ± SEM (DAI without body weight parameter) [1, 4]: 2.06 ± 0.28
Mean Colon Length Cm ± SEM [1, 4]: 9.2 ± 0.1 Cm
deaths ([1]; 50 mg/kg dose): 1
prevention of colitis produced by 5% Dextran Sulfate Sodium ([1]; PO bid, 5% DSS): significant activity
protection against weight loss ([1]; any dose (25 and 50 mg/kg PO bid)): No significant protection
shortening of the colon produced by DSS ([1]; dose levels of 25 and 50 mg/kg PO bid): prevented
weight DAY 0 ([2]; 12.5 mg/kg PO + DSS): 23.6 ± 0.3
% change (weight) DAY 5 ([2]; 12.5 mg/kg PO + DSS): +1.3 ± 1.0%
weight DAY 5 ([2]; 12.5 mg/kg PO + DSS): 23.9 ± 0.4
% change (weight) DAY 6 ([2]; 12.5 mg/kg PO + DSS): 0.0 ± 1.0%
weight DAY 6 ([2]; 12.5 mg/kg PO + DSS): 23.6 ± 0.4
% change (weight) DAY 7 ([2]; 12.5 mg/kg PO + DSS): +1.3 ± 1.0%
weight DAY 7 ([2]; 12.5 mg/kg PO + DSS): 23.9 ± 0.4
% Inh. Colonic Shortening ([2]; 12.5 mg/kg PO daily): 65%
% of Normal Length Shortening ([2]; 12.5 mg/kg PO daily): 89.6%
DAI mean ± SEM ([2]; 12.5 mg/kg PO daily): 1.57 ± 0.17
DAINWT mean ± SEM ([2]; 12.5 mg/kg PO daily): 2.25 ± 0.25
Mean Colon Length Cm ± SEM ([2]; 12.5 mg/kg PO daily): 10.0 ± 0.1 Cm
weight DAY 0 ([2]; 25 mg/kg PO + DSS): 24.2 ± 0.4
weight DAY 5 ([2]; 25 mg/kg PO + DSS): 24.7 ± 0.6
% change (weight) DAY 6 ([2]; 25 mg/kg PO + DSS): −1.2 ± 1.0%
weight DAY 6 ([2]; 25 mg/kg PO + DSS): 23.9 ± 0.5
% change (weight) DAY 7 ([2]; 25 mg/kg PO + DSS): +2.9 ± 1.0%
weight DAY 7 ([2]; 25 mg/kg PO + DSS): 24.9 ± 0.5
% Inh. Colonic Shortening ([2]; 25 mg/kg PO): 58%
% of Normal Length Shortening ([2]; 25 mg/kg PO): 88.7%
DAI mean ± SEM ([2]; 25 mg/kg PO): 1.53 ± 0.17
DAINWT mean ± SEM ([2]; 25 mg/kg PO): 2.30 ± 0.25
Mean Colon Length Cm ± SEM ([2]; 25 mg/kg PO): 9.9 ± 0.3 Cm
weight DAY 0 ([2]; 50 mg/kg PO + DSS): 23.9 ± 0.3
% change (weight) DAY 5 ([2]; 50 mg/kg PO + DSS): −0.7 ± 1.0%
weight DAY 5 ([2]; 50 mg/kg PO + DSS): 23.9 ± 0.3
% change (weight) DAY 6 ([2]; 50 mg/kg PO + DSS): −1.6 ± 1.0%
weight DAY 6 ([2]; 50 mg/kg PO + DSS): 23.5 ± 0.3
% change (weight) DAY 7 ([2]; 50 mg/kg PO + DSS): −0.3 ± 2.0%
weight DAY 7 ([2]; 50 mg/kg PO + DSS): 23.8 ± 0.3
% Inh. Colonic Shortening ([2]; 50 mg/kg PO): 52%
% of Normal Length Shortening ([2]; 50 mg/kg PO): 87.0%
DAI mean ± SEM ([2]; 50 mg/kg PO): 1.70 ± 0.18
DAINWT mean ± SEM ([2]; 50 mg/kg PO): 2.30 ± 0.24
Mean Colon Length Cm ± SEM ([2]; 50 mg/kg PO): 9.7 ± 0.2 Cm
deaths during the duration of the experiment ([2]; 12.5, 25, 50 mg/kg PO): No deaths
dose of maximal effectiveness on prevention of colonic shortening ([2]; PO daily, lowest dose tested): 12.5 mg/kg
protection based on DAI and DAINWT ([2]; all doses (12.5, 25, 50 mg/kg PO)): statistically significant protection

Reference: patent US20040044032A1, “Farnesyl protein transfer inhibitors for the treatment of inflammatory bowel disease” (priority 2003, published 2004)
